According to paper PMC11288129, “Diversely evolved xibalbin variants from remipede venom inhibit potassium channels and activate PKA-II and Erk1/2 signaling” (BMC Biology, 2024):

Key:
Assay type in all cases: cell-based
[1] = test system: PKA-II (phospho-RIIα/β) in rat DRG neurons; assay: High-content imaging of PKA-II activity (pRII) in DRG sensory neurons
Experimental: (§1) To gauge sensory neuron activity in response to various activating stimuli, including electrical activity, phosphorylation state detection of protein kinase A type II (PKA-II) and MAP kinase Erk1/2 can act as surrogate measurements. Consequently, we tested for increased phosphorylation states in a concentration-dependent manner following exposure to xibalbins. Dissociated DRG neurons were cultured overnight and then exposed to increasing concentrations of the corresponding xibalbins for 5 min and 30 min, respectively. As a positive control, forskolin (Fsk) was also used to induce cAMP synthesis. The activity of PKA-II was monitored by antibodies directed against the phosphorylation site of the inhibitory regulatory subunits RIIα/β, which is exclusively accessible when the catalytic kinase domain is released during kinase activation. For measuring Erk1/2 activity, phospho-sites on Erk1/2 (T202/Y204) were monitored through immunofluorescence, as these sites are phosphorylated during activation. Cellular images were captured using HCI microscopy (Fig. 8A), and the average intensity of each phospho-antibody was quantified (Fig. 8B).
(§2) Fig. 8 A Representative images of rat DRG neurons stimulated with PBS (Ctrl) and xib1b (0.8 µg/µL). Cells were stained for UCHL1, pRII, pERK1/2, and Hoechst followed by fixation and staining with standard immunocytochemistry protocols. Green-encircled neurons indicate automatically selected objects. Scale bar: 100 µm. B Mean intensities of UCHL1, pRII, and pERK1/2. The same UCHL1 intensities were observed among tested groups. Forskolin (Fsk), an activator of adenylyl cyclase, was used as a positive control. Fsk at 6 µM concentration induced an increase in pRII and pERK1/2 intensities at 5 and 30 min. Number of analyzed cells per replica: 750 ± 200. Eight independent replicas. C–F Concentration responses of xibalbin toxins (0.005 to 0.8 µg/µL) and mean intensities of pRII and pERK1/2 at 5 min and 30 min. G–H Size versus pRII and pErk1/2 intensities of cells treated with 0.8 µg/µL of xib1 and xib13. Small-sized cells were responding to xibalbins. Statistical significance was assessed using one-way ANOVA with Dunnett’s post hoc test. Data represent mean ± S.E.M (standard error of the mean), n = 4, see “Methods” for details and Additional File 6: Table S2 for individual data values
(§3) Male Sprague Dawley rats (250–400 g, 8–16 weeks old) were obtained from Envigo. Rats were kept in 12 h of light/darkness cycles. All experiments were performed in accordance with the German animal welfare law with permission of the District Government for Nature and Environment, NRW (84–02.05.20.13.045, 4.18.003). Rats were scarified by slow inhalation of CO2 which was followed by decapitation. DRGs were extracted from rats, deheated, pooled, and incubated in Neurobasal A/B27 medium (Invitrogen, #12349–015) supplemented with B-27 (Invitrogen #17504), L-glutamine 1:400, L-glutamate 1:270.3, and penicillin/streptomycin 1:100 containing 0.2 U/mL collagenase P (collagenase P, Roche, #1213857) and incubated for 1 h at 37 °C, 5% CO2. DRGs were dissociated with pasteur pipettes and axon stumps were separated by BSA (Sigma-Aldrich, # A2153-100G) gradient centrifugation (14% BSA, 120 g, 8 min). Cells were resuspended in NBA medium, plated in 96-well imaging plate (Greiner BioOne Sensoplate, Black, #655896) precoated with poly-L-ornithine hydrochloride (0.1 mg/ml Sigma, #P2533)/laminin (5 µg/ml Invitrogen, #23017–015), and incubated overnight at 37 °C, 5% CO2.
(§4) DRGs were stimulated after overnight incubation. Compounds were prepared as tenfold concentrated stock solutions, diluted in PBS (PAA, cat# H15-002), in v-bottom plates; 50 µL media from culture wells were mixed with the […] stock solutions, and 50 µL added back to the respective wells. Stimulation was performed with automated multichannel pipette and cells were kept in heated block during the stimulation. […]

[2] = test system: Erk1/2 (T202/Y204) in rat DRG neurons; assay: High-content imaging of pERK1/2 in DRG sensory neurons; settings: positive control Fsk 6 µM; 5 and 30 min
Experimental: as §1, §2, §3, §4

[3] = test system: HEK293T cells; assay: Ca2+ influx induction, Fluo-8 calcium imaging; settings: HEK293 cells
Experimental: We examined the potential of xibalbins in a concentration range of 0.25 to 25 µg/ml regarding their effects on Ca^2+ influx in HEK293 cells, which express calcium channels. […] However, exposure to none of the four xibalbin variants by itself did increase [Ca^2+]i as measured by Fluo-8 calcium imaging assay. Additionally, none of the xibalbin variants modulated forskolin-induced [Ca^2+]i increase (Additional File 7: Figure S5 A). We also evaluated the effect of xibalbins on cAMP synthesis. However, xibalbins had no effect on increasing cAMP synthesis in HEK293 cells or on preventing the forskolin-induced cAMP synthesis (Additional File 7: Figure S5 B).
Supplementary file 12915_2024_1955_MOESM7_ESM.jpg: Additional file 7: Figure S5. […] A threshold of fluorescence intensity was defined using cells before treatment, all cells above the threshold level were counted. […] For the induction assay (left panel), the luminescence was detected (background, 3 measurements every 5 min) and then the xibalbins (0.25, 2.5, 25 μg/ml) or 5 μM forskolin were added to detect the luminescence (3 measurements/5 min) using a plate reader (Spark, Tecan, Männedorf, Switzerland). For the inhibition assay (right panel), the xibalbin-treated cells were incubated with 5 μM forskolin to detect the luminescence (3 measurements/5 min). […] After 24 h NO was determined in supernatants with the Griess method. […]

`C=C[C@@]1(C)CC(=O)[C@]2(O)[C@@]3(C)[C@@H](O)CCC(C)(C)[C@@H]3[C@H](O)[C@H](OC(C)=O)[C@@]2(C)O1` [Forskolin, reference compound] was tested, and the “pRII intensity” value ([1]; positive control Fsk 6 µM, 5 and 30 min) was “increase”, the “pRII response by neuron size” value ([1]; xibalbins 0.8 µg/µL) was “activated both small and large-sized sensory neurons” and the “pERK1/2 intensity” value [2] was “increase”. For the same compound, the “increase of [Ca2+]i by positive control” value [3] was “increased [Ca^2+]i”.
